Assays:
[1] = target: T1, human P2X2/3 (heteromeric P2X2/3 channels) (Homo sapiens, UniProt P56373+Q9UBL9); experiment: FlexStation calcium fluorescence assay, heteromeric P2X2/3 channels in 1321N1 cells; type: cell-based; conditions: for IC50: 1321N1 cells, hP2X2/3, agonist 3 μM ATP, highest concentration tested is 10 μM, read-out: Average pIC50 P2X2/3 (converted); for P2X2/3 mean pIC50, R = OMe: Table 3B, hP2X2/3, 1321N1 (astrocytoma) cells, Table 2
T1 construct: expressed in transfected cells; host or cells: 1321N1 human astrocytoma cells (1321N1-hP2X2/3)
T1 sequence (P56373 1-397): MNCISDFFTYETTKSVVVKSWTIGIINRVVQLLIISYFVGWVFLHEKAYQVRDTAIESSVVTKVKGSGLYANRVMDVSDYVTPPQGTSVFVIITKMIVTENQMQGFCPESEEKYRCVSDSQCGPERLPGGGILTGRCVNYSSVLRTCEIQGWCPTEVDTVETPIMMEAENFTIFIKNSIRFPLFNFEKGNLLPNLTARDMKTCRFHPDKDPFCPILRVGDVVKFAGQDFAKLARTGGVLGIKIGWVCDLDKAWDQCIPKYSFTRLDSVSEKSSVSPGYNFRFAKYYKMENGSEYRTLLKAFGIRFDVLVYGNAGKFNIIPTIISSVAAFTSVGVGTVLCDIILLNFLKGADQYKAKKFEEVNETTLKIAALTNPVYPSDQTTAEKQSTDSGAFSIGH
T1 sequence (Q9UBL9 1-471): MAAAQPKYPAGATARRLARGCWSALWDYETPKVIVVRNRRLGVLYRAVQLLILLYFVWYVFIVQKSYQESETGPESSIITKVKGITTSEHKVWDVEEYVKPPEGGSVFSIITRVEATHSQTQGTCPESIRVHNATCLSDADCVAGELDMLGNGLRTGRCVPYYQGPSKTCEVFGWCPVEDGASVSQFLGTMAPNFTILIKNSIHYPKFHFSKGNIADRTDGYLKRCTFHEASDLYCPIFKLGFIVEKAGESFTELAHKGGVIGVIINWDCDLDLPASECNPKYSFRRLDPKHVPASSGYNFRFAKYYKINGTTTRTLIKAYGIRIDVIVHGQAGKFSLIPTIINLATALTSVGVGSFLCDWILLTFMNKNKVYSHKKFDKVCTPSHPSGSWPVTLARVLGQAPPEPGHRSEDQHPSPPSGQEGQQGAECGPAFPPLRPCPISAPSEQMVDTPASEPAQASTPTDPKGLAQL
Procedure: (§1) 1321N1 human astrocytoma and HEK293 human embryonic kidney cells were stably transfected with human P2X2 and P2X3 receptor subunits to form heteromeric P2X2/3 channels and passaged in flasks. Additionally, HEK293 cells were stably transfected with human P2X3 receptor subunits to form homomeric P2X3 channels.
(§2) Approximately 24 hours before the FlexStation calcium fluorescence experiment, cells were released from their flasks, centrifuged and re-suspended in nutrient medium. The cells were aliquoted into black-wall, clear-bottom 96 well plates at a density of 25,000 cells per well and incubated overnight in a humidified, CO2-enriched (5%) atmosphere at 37° C.
(§3) On the day of the experiment, cells were washed with assay buffer (calcium- and magnesium-free Hank's balanced salt solution, 20 mM HEPES, 2 mM CaCl2; AB) and loaded with 4 μM Fluo-4 (P2X2/3) or Calcium 6 (Molecular Devices, according to manufacturer's instructions; P2X3) calcium-sensitive fluorescent dye in 100 μL AB.
(§4) After 1 hour of dye loading at 37° C., 1321N1-hP2X2/3 cells were washed two times with AB and test compound or vehicle added to each well in a total volume of 150 μL AB. HEK-hP2X3 cells were not washed because the Calcium 6 dye kit includes an extracellular dye that quenches unabsorbed Calcium 6 dye; test compound or vehicle were added directly to the assay plates to achieve the appropriate concentration of test compound in a total volume of 150 μL AB.
(§5) After 20 minutes incubation at room temperature and protected from light, the assay plates were loaded into the FlexStation microplate reader and baseline fluorescence measured with an excitation wavelength of 485 nm and emission wavelength readings centered at 525 nm (515 nm cut off).
(§6) The agonist was dispensed by the FlexStation during fluorescence measurement to construct agonist activation and antagonist inhibition curves. The final agonist concentration for inhibition was 1 μM α,β-meATP for P2X3 and 3 μM ATP for P2X2/3. Peak fluorescence was measured and curves generated using a four parameter nonlinear regression equation.

[2] = target: T2, human P2X3 receptor (homomeric P2X3 channels) (Homo sapiens, UniProt P56373); experiment: FlexStation calcium fluorescence assay, homomeric P2X3 channels in HEK293 cells; type: cell-based; conditions: for IC50: HEK293 cells, hP2X3, agonist 1 μM α,β-meATP, read-out: Average pIC50 P2X3 (converted); for Selectivity P2X3/P2X2/3: Ratio=10^(P2X3pIC50−P2X2/3pIC50); for Selectivity, R = OMe / P2X3 mean pIC50, R = OMe: Table 3B; for Selectivity, R = OMe: P2X3 vs P2X2/3 potency ratio; for P2X3 mean pIC50, R = OMe: hP2X3, HEK293 cells, Table 2
T2 construct: expressed in transfected cells; host or cells: HEK293 human embryonic kidney cells (HEK-hP2X3)
T2 sequence (P56373 1-397): T1 sequence (P56373 1-397)
Procedure: as §1, §2, §3, §4, §5, §6

SMILES | IC50 [1] [µM] | IC50 [2] [µM] | Selectivity P2X3/P2X2/3 [2] | P2X2/3 mean pIC50, R = OMe [1] | Selectivity, R = OMe [2] | P2X3 mean pIC50, R = OMe [2]
COc1nc(C(C)C)c(Oc2cnc(N)nc2N)cc1S(N)(=O)=O [Compound 20] | 0.398 | 0.02 |  |  |  | 
COc1cc(Oc2cnc(NC(C)(C)C)nc2N)c(C(C)C)cc1OC [Compound 23] | > 10 | 1 | >10.5 |  |  | 
COc1cc(Oc2cnc(NCC(C)C)nc2N)c(C(C)C)cc1OC [Compound 25] | 2.51 | 0.631 | 4.3 |  |  | 
COc1cc(Oc2cnc(NC3CC3)nc2N)c(C(C)C)cc1OC [Compound 26] | 3.16 | 0.631 | 5.4 |  |  | 
CCNc1ncc(Oc2cc(OC)c(OC)cc2C(C)C)c(N)n1 [Compound 29] | 3.16 | 0.398 | 9.3 |  |  | 
COc1cc(Oc2cnc(NCC(O)CO)nc2N)c(C(C)C)cc1OC (centres unmarked) [Compound 31] | 3.98 | 0.2 | 21 | 5.4 | 20 | 6.7
COc1cc(Oc2cnc(N)nc2NC2CC2)c(C(C)C)cc1OC [Compound 32] | 1.26 | 0.794 | 1.6 |  |  | 
COc1cc(Oc2cnc(N)nc2NCCO)c(C(C)C)cc1OC [Compound 37] | > 10 | 1 | >10 |  |  | 
COc1cc(Oc2cnc(N)nc2NCCN(C)C)c(C(C)C)cc1OC [Compound 38] | 2.51 | 0.158 | 17 |  |  | 

More lines, now with the values ahead:

IC50 [1] [µM] | IC50 [2] [µM] | Selectivity P2X3/P2X2/3 [2] | P2X2/3 mean pIC50, R = OMe [1] | Selectivity, R = OMe [2] | P2X3 mean pIC50, R = OMe [2] | SMILES
0.398 | 0.0794 | 5.0 |  |  |  | COc1cc(Oc2cnc(NC(CCO)CCO)nc2N)c(C(C)C)cc1OC [Compound 21]
1.58 | 0.2 | 7.9 | 5.8 | 7.9 | 6.7 | COc1cc(Oc2cnc(NCCO)nc2N)c(C(C)C)cc1OC [Compound 22]
> 10 | 1.58 | >5.9 |  |  |  | COCCOCCNc1ncc(Oc2cc(OC)c(OC)cc2C(C)C)c(N)n1 [Compound 24]
0.501 | 0.2 | 2.5 |  |  |  | COc1cc(Oc2cnc(NC3CCC3)nc2N)c(C(C)C)cc1OC [Compound 27]
1.26 | 0.398 | 3.2 |  |  |  | COc1cc(Oc2cnc(NC3CCOCC3)nc2N)c(C(C)C)cc1OC [Compound 28]
0.631 | 0.126 | 4.9 | 6.2 | 5.0 | 6.9 | COc1cc(Oc2cnc(NC(CO)CO)nc2N)c(C(C)C)cc1OC [Compound 30]
> 10 | 0.631 | >15 |  |  |  | COc1cc(Oc2cnc(N)nc2NCC(C)C)c(C(C)C)cc1OC [Compound 33]
> 10 | 1.58 | >6.4 |  |  |  | CNc1nc(N)ncc1Oc1cc(OC)c(OC)cc1C(C)C [Compound 34]
> 10 | 3.98 | >2.5 |  |  |  | COc1cc(Oc2cnc(N)nc2NC(C)C)c(C(C)C)cc1OC [Compound 35]
> 10 | 1 | >10 |  |  |  | COCCNc1nc(N)ncc1Oc1cc(OC)c(OC)cc1C(C)C [Compound 36]
6.31 | 0.316 | 20 |  |  |  | COc1cc(Oc2cnc(N)nc2NC2CCN(C)CC2)c(C(C)C)cc1OC [Compound 39]

Reference: US10822311B2, “Pyrimidines and variants thereof, and uses therefor” (Afferent Pharmaceuticals Inc., priority 2016, dated 2020)
